From the supplement of paper PMC11821682 come the findings set out here.

The structures appear in SMILES notation.

Test [1] deals with Danio rerio embryo. The test can be described thus: BMC10 any morphological effect or mortality at 120 hpf; higher = less toxic.
The subject of test [2] is Danio rerio embryo. As to the kind of experiment: LEL embryonic photomotor response 24 hpf. As to the method: (§1)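 ZBEscreen: dechorionated Tropical 5D zebrafish embryos were exposed from 4 hpf in 96-well plates (1% DMSO, 28 °C). All compounds were first tested at 100 µM; hits were retested at 0.005-100 µM. Morphology and mortality were scored at 120 hpf and fitted as BMC10 (3-parameter log-logistic, extra risk). The embryonic photomotor response at 24 hpf and the larval photomotor response at 120 hpf are given as lowest effect levels (K-S test, p<0.01). NA = not significant up to 100 µM; NT = not tested.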

In another test the test system is HL-60. As to the kind of experiment: Cell Health Index (toxicity pseudo-probability over dose series) (index 0-1); higher = more cytotoxic / cell stress.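 Further: HL-60 cells exposed 4 h at 37 °C to ten threefold dilutions spanning 5 nM to 100 µM, multiparametric flow cytometry features scored by machine-learning classification.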
Test [3] concerns Danio rerio embryo. The test can be described thus: LEL larval photomotor response dark phase 120 hpf. As to the method:
as §1

For test [4], the system named is Danio rerio embryo. The test can be described thus: BMC10 mortality 24-120 hpf; higher = less toxic. As to the method:
as §1

On to `O=C(Nc1cc(C(F)(F)F)ccc1N1CCCCC1)c1ccncc1` [SRPIN340], for which the “BMC10 any morphological effect or mortality” value with Danio rerio embryo [1] is 0.68 µM. Also, the “LEL embryonic photomotor response 24 hpf” value with Danio rerio embryo [2] stood at 33.3 µM. For the same molecule, the “Cell Health Index” value with HL-60 came out at 0.799. In addition, in the test on Danio rerio embryo [3], the “LEL larval photomotor response dark phase 120 hpf” value was above 100 µM. Also, in the test with Danio rerio embryo [4], the “BMC10 mortality 24-120 hpf” value turned out to be 10.3 µM.
The corresponding values for `O[C@H]1[C@@]2([H])[C@](CC[C@]2([H])[C@](O)(C)CC/C=C(C)/C)(C)[C@]3(C)CC[C@]4([H])[C@@](CC[C@H](O[C@]5([H])O[C@H](CO)[C@@H](O)[C@H](O)[C@H]5O)C4(C)C)(C)[C@@]3([H])C1` [20(S)-Ginsenoside Rh2] are above 100 µM, 11.1 µM, 0.787, above 100 µM and 9.35 µM.
The corresponding values for `CCCCCCCCCCCCCCCC[n+]1ccn(Cc2ccccc2)c1C.[I-]` [NH125 parent] are 7.19 µM, 33.3 µM, 0.949, above 100 µM and 8.53 µM.
The matching figures for `O=c1cc(-c2ccccc2)oc2cc(O)cc(O)c12` [Chrysin]: 28.6 µM, 33.3 µM, 0.435, 11.1 µM and 28.3 µM.
Turning to `CC(C)c1cnn2c(NCc3ccccc3-n3cccn3)nc(OC3CCCNC3)nc12` (stereo not given) [LDC-4297], the “BMC10 any morphological effect or mortality” value with Danio rerio embryo [1] came out at 15.3 µM. The “LEL embryonic photomotor response 24 hpf” value with Danio rerio embryo [2] turned out to be 33.3 µM. In the test on HL-60, the “Cell Health Index” value came to 0.847. Besides, the “LEL larval photomotor response dark phase 120 hpf” value in the test on Danio rerio embryo [3] is above 100 µM. Besides, the “BMC10 mortality 24-120 hpf” value with Danio rerio embryo [4] was determined as 32.8 µM.
The corresponding values for `O=C(Nc1cccc(NC(=O)c2cccc(O)c2O)c1)c1cccc(O)c1O` [MST-312] are 65.3 µM, 100 µM, 0.688, above 100 µM and 74.3 µM.
The corresponding values for `COc1c(O)cc2oc(-c3ccccc3)cc(=O)c2c1O` [Oroxylin A] are 27.2 µM, above 100 µM, 0.234, above 100 µM and 64.9 µM.
For the molecule `C=CC(C)(C)c1cc(/C=C/C(=O)c2ccc(O)cc2)c(OC)cc1O` [Licochalcone A], in the test with Danio rerio embryo [1], the “BMC10 any morphological effect or mortality” value is 0.64 µM. Moreover, in the test with Danio rerio embryo [2], the “LEL embryonic photomotor response 24 hpf” value came to 3.7 µM. For the same molecule, the “Cell Health Index” value with HL-60 was found to be 0.828. The “LEL larval photomotor response dark phase 120 hpf” value in the test on Danio rerio embryo [3] is above 100 µM. The “BMC10 mortality 24-120 hpf” value in the test on Danio rerio embryo [4] was 1.16 µM.
The matching figures for `Oc1c(Cl)cc(Cl)cc1Sc1cc(Cl)cc(Cl)c1O` [Bithionol]: 0.577 µM, 3.7 µM, 0.826, above 100 µM and 0.795 µM.
With `CCOC(=O)c1ccc(OCCC2CCN(c3ccc(C)nn3)CC2)cc1` [Pirodavir], the “BMC10 any morphological effect or mortality” value in the test with Danio rerio embryo [1] was determined as 2.02 µM. Further, the “LEL embryonic photomotor response 24 hpf” value with Danio rerio embryo [2] stood at 3.7 µM. Also, the “Cell Health Index” value in the test on HL-60 stood at 0.528. In addition, the “LEL larval photomotor response dark phase 120 hpf” value with Danio rerio embryo [3] is above 100 µM. In addition, in the test with Danio rerio embryo [4], the “BMC10 mortality 24-120 hpf” value was 1.43 µM.
The corresponding values for `Cc1sc2c(c1C)C(c1ccc(Cl)cc1)=N[C@@H](CC(=O)OC(C)(C)C)c1nnc(C)n1-2` [(+)-JQ1] are 1.13 µM, 3.7 µM, 0.87, above 100 µM and 1.15 µM.
The matching figures for `Cl.O[C@@H](c1cc(C(F)(F)F)nc2c(C(F)(F)F)cccc12)[C@H]1CCCCN1` [Mefloquine]: 8.89 µM, 0.015 µM, 0.931, above 100 µM and 10.7 µM.
The matching figures for `COc1ccc2cc1Oc1ccc(cc1)C[C@H]1c3cc(c(OC)cc3CCN1C)Oc1c(O)c(OC)cc3c1[C@H](C2)N(C)CC3` [Fangchinoline]: 6.15 µM, above 100 µM, 0.884, above 100 µM and 46.2 µM.
Turning to `O=C1c2cccc(O)c2C(=O)c2c(O)cc(CO)cc21` [Aloe-emodin], the “BMC10 any morphological effect or mortality” value in the test on Danio rerio embryo [1] was 9.08 µM. The “LEL embryonic photomotor response 24 hpf” value with Danio rerio embryo [2] worked out at 3.7 µM. The “Cell Health Index” value in the test on HL-60 amounted to 0.198. In addition, the “LEL larval photomotor response dark phase 120 hpf” value in the test with Danio rerio embryo [3] was above 100 µM. For the same molecule, in the test with Danio rerio embryo [4], the “BMC10 mortality 24-120 hpf” value is 17.1 µM.
Regarding `Fc1ccc(CNc2ncnc3ccc(F)cc23)cc1` [Spautin-1], the “BMC10 any morphological effect or mortality” value with Danio rerio embryo [1] amounted to 0.511 µM. In the test with Danio rerio embryo [2], the “LEL embryonic photomotor response 24 hpf” value came to 3.7 µM. Also, the “Cell Health Index” value in the test with HL-60 was 0.772. Also, the “LEL larval photomotor response dark phase 120 hpf” value in the test on Danio rerio embryo [3] was 1.23 µM. Besides, the “BMC10 mortality 24-120 hpf” value in the test with Danio rerio embryo [4] was determined as 1.17 µM.
The corresponding values for `O[C@H]1CC[C@H](Nc2nc(-c3ccccc3)nc3[nH]ccc23)CC1` [Derenofylline] are 22.7 µM, 100 µM, 0.201, above 100 µM and 36.8 µM.
The matching figures for `CC(C)C(=O)SCCCCCCC(=O)Nc1nc(-c2ccccc2)cs1` [NCH-51]: 0.188 µM, 0.41 µM, 0.268, above 100 µM and 0.624 µM.
The matching figures for `O=c1c(O)c(-c2ccc(O)cc2)oc2cc(O)cc(O)c12` [Kaempferol]: 10 µM, above 100 µM, 0.463, above 100 µM and 38.4 µM.
In the case of `CC(C)(C)c1cc(C(=O)/C(C#N)=N/Nc2cccc(Cl)c2)no1` [ESI-09], the “BMC10 any morphological effect or mortality” value in the test on Danio rerio embryo [1] stood at 0.422 µM. Besides, in the test with Danio rerio embryo [2], the “LEL embryonic photomotor response 24 hpf” value is 11.1 µM. In the test on HL-60, the “Cell Health Index” value was determined as 0.698. Moreover, the “LEL larval photomotor response dark phase 120 hpf” value with Danio rerio embryo [3] was above 100 µM. Besides, the “BMC10 mortality 24-120 hpf” value with Danio rerio embryo [4] worked out at 0.13 µM.
For `COC(=O)c1cc(OC)c2c(c1-c1c(CO)cc(OC)c3c1OCO3)OCO2` [Bicyclol], the “BMC10 any morphological effect or mortality” value with Danio rerio embryo [1] came to 4.07 µM. The “LEL embryonic photomotor response 24 hpf” value in the test on Danio rerio embryo [2] came to 0.046 µM. Moreover, in the test on HL-60, the “Cell Health Index” value came out at 0.207. Besides, in the test on Danio rerio embryo [3], the “LEL larval photomotor response dark phase 120 hpf” value was above 100 µM. Besides, the “BMC10 mortality 24-120 hpf” value in the test on Danio rerio embryo [4] came to 10.7 µM.
The matching figures for `C[C@H]1O[C@@H](O[C@H]2CC[C@@]3(C)[C@@H](CC[C@]4(C)[C@@H]3C=C[C@]35OC[C@@]6(CCC(C)(C)C[C@H]63)[C@@H](O)C[C@]54C)[C@]2(C)CO)[C@H](O)[C@@H](O[C@@H]2O[C@H](CO)[C@@H](O)[C@H](O)[C@H]2O)[C@H]1O` [Saikosaponin A]: above 100 µM, above 100 µM, 0.959, above 100 µM and 1.46 µM.
The matching figures for `CNc1ccc([N+](=O)[O-])c(Nc2ccc3[nH]ncc3c2)n1` [KRIBB11]: 3.27 µM, 11.1 µM, 0.372, 1.23 µM and 0.805 µM.
